Results taken from publication PMC5161622 (ACS synthetic biology, 2016).
“Also recorded” adds a separate entry of the source.

Key:
β-gly W33G [1] = molecular target: T1, β-gly W33G (Saccharolobus solfataricus, UniProt P22498, W33G); experiment: β-glycosidase enzyme assay, rescue of β-gly W33G by effector ligands; type: biochemical, Sulfolobus solfataricus; conditions: for rescue of enzyme activity (in words) / enhancement of initial velocity relative to apo enzyme: 2 mM effector; for rescue of enzyme activity (in words) / agonist class / concentration dependence of initial velocity / effector dissociation constant KD (in words) / linkage term W (in words): 750 μM FDGal; for agonist class: concentration dependence; for concentration dependence of initial velocity / effector dissociation constant KD (in words) / linkage term W (in words): up to 5 mM effector; for effector dissociation constant KD (in words) / linkage term W (in words): fit of concentration dependence
β-gly W33G [2] = molecular target: T1, β-gly W33G; experiment: 19F NMR competition assay with 6-fluoroindole reporter, β-gly W33G; type: binding, Sulfolobus solfataricus; conditions: 2 mM 6-fluoroindole, 500 μM protein; for displacement of 6-fluoroindole reporter (19F peak sharpening): 5 mM competitor
β-gly W33A = β-gly W33A (Saccharolobus solfataricus, UniProt P22498, W33A); experiment: β-glycosidase enzyme assay, rescue of β-gly W33A; type: biochemical, Sulfolobus solfataricus; conditions: 750 μM FDGal
β-gly W33G_V37A = β-gly W33G_V37A (Saccharolobus solfataricus, UniProt P22498, V37A/W33G); experiment: β-glycosidase enzyme assay, rescue of β-gly W33G_V37A; type: biochemical, Sulfolobus solfataricus
WT β-gly = molecular target: T2, WT β-gly (Saccharolobus solfataricus, UniProt P22498); experiment: 19F NMR reporter binding, wild type β-gly; set-up: species or system Sulfolobus solfataricus; conditions: 2 mM 6-fluoroindole, 500 μM WT protein
T2 sequence (P22498 1-489): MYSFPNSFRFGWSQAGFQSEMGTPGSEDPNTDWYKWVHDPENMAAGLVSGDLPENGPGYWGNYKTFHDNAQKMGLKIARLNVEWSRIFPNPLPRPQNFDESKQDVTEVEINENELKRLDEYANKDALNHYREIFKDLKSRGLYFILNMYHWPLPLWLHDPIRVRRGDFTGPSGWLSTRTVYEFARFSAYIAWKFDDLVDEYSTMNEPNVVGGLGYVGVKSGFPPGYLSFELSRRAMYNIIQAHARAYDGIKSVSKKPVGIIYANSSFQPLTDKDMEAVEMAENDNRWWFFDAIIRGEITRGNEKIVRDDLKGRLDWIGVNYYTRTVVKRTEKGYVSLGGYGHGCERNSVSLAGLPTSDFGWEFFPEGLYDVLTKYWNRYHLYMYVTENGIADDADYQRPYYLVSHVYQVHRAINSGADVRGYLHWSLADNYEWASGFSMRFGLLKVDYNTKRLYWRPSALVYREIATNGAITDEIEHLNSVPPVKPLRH

β-gly W33G [3] = molecular target: T1, β-gly W33G; conditions: 10 mM indole, cited from earlier work
[4] = fit of concentration dependence

Sequence of β-gly W33G_V37A (P22498 whole entry W33G/V37A): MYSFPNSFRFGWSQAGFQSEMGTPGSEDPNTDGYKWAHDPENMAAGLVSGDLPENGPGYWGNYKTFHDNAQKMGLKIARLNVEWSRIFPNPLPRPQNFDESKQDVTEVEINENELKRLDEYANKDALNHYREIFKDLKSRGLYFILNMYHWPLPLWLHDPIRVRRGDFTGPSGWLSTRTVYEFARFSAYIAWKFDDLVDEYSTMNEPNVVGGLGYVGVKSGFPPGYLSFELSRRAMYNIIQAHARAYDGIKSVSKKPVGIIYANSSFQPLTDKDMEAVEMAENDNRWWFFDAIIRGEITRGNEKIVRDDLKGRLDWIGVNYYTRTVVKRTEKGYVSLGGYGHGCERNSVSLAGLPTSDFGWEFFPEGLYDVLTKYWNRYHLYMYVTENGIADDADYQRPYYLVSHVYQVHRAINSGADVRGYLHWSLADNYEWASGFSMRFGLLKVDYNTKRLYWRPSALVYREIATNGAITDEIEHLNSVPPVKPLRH
T1 sequence (P22498 whole entry W33G): as the sequence (P22498 whole entry W33G/V37A) above, with A37V counted along it
Sequence of β-gly W33A (P22498 whole entry W33A): as the sequence (P22498 whole entry W33G/V37A) above, with G33A, A37V counted along it

## Cc1cc2ccccc2[nH]1 [2-methylindole]
β-gly W33G [1]
  rescue of enzyme activity (in words): no increase in activity over the apo enzyme
β-gly W33G [2]
  displacement of 6-fluoroindole reporter (19F peak sharpening): very little, if any, peak sharpening; also recorded: does not bind to this site

## Cc1c[nH]c2ccccc12 [3-methylindole]
β-gly W33G [1]
  agonist class: partial agonists
  concentration dependence of initial velocity: dose-dependent increases in the initial velocity
  rescue of enzyme activity (in words): most rescue; also recorded: the next best rescuing compound
  effector dissociation constant KD (in words): slightly better than for indole; also recorded: superior KD
  linkage term W (in words): worse than for indole
β-gly W33G [1]; FDGlc substrate 250 μM, indole versus 3-methylindole
  enhancement of initial velocity relative to apo enzyme: difference in rescue between these substrates is greatly reduced
β-gly W33G [2]
  displacement of 6-fluoroindole reporter (19F peak sharpening): analogous peak sharpening
β-gly W33A
  rescue of enzyme activity (in words): rescued activity better than indole
β-gly W33A; [4]
  linkage term W (in words): lower for W33A than for W33G

## Fc1ccc2[nH]ccc2c1 [5-fluoroindole]
β-gly W33G [1]
  concentration dependence of initial velocity: enhanced β-glycosidase activity at each of the concentrations we tested
  effector dissociation constant KD (in words): KD favors 5-fluoroindole
  linkage term W (in words): W favors indole

## Cc1ccc2[nH]ccc2c1 [5-methylindole]
β-gly W33G_V37A; 2 mM effector, 750 μM FDGal
  rescue of enzyme activity (in words): superior over indole
β-gly W33G_V37A; 5-methylindole / β-gly W33G_V37A switch
  ligand efficiency (binding free energy per non-hydrogen atom): −0.43 kcal/mol·atom
β-gly W33G_V37A; fit of concentration dependence, 750 μM FDGal
  binding affinity KD (in words): almost an order of magnitude tighter than that of indole

## Fc1ccc2cc[nH]c2c1 [6-fluoroindole]
β-gly W33G [1]
  rescue of enzyme activity (in words): very similar level as indole itself
β-gly W33G [2]; covalent substrate analog attached
  19F signal of reporter upon addition of protein: considerable peak broadening
WT β-gly
  19F signal of reporter upon addition of protein: no change to this peak

## CNc1ccccc1 [N-methylaniline]
β-gly W33G [1]
  agonist class: partial agonists
  concentration dependence of initial velocity: dose-dependent increases in the initial velocity
  rescue of enzyme activity (in words): intermediate rescue
  linkage term W (in words): superior W value
β-gly W33G [2]
  displacement of 6-fluoroindole reporter (19F peak sharpening): analogous peak sharpening
β-gly W33A
  rescue of enzyme activity (in words): better than either indole or 3-methylindole
β-gly W33A; [4]
  binding affinity KD (in words): poor binding affinity
  linkage term W (in words): highest value of W

## c1ccc2[nH]ccc2c1 [indole]
β-gly W33G [1]
  agonist class: full agonist
  concentration dependence of initial velocity: dose-dependent increases in the initial velocity
  rescue of enzyme activity (in words): about twice the activity of 5-methylindole
  linkage term W (in words): highest linkage term (W)
β-gly W33G [1]; FDGal substrate 250 μM
  enhancement of initial velocity relative to apo enzyme: better rescue with 2 mM indole than with 2 mM 3-methylindole
β-gly W33G [1]; binding to β-gly W33G
  ligand efficiency (binding free energy per non-hydrogen atom): −0.31 kcal/mol·atom
β-gly W33G [2]
  displacement of 6-fluoroindole reporter (19F peak sharpening): signal sharpens
β-gly W33A; [4]
  linkage term W (in words): lower for W33A than for W33G
β-gly W33G [3]; W33G alone 730-fold decrease
  restoration of kcat/Km relative to wild type: completely restored
β-gly W33G [3]
  restoration of wild type activity: fully restored wild type activity
